Source: patent US20050164306A1, “Methods for screening for a compound useful in the treatment or prevention of lymphocytic disorders, for inhibiting lymphocite activity and preventing or treating lymphocytic disorders” (priority 2002, published 2005)
pKi: −log10 of the molar value. Entries after “also recorded” stand apart in the source; their conditions may differ. Like-named read-outs stand apart in the source and are kept apart here.

Columns and labels:
[1] = system: human peripheral blood lymphocytes (PBL); assay: Mitogen stimulation and proliferation assay (3H-thymidine uptake); type: cell-based; settings: for lymphocytic activity including proliferation and humoral response (in words): normal T lymphocyte
Protocol: A thymidine uptake assay was used to evaluate the effect of […] inhibitors on the proliferative activity of normal lymphocytes. Cell suspensions of fresh human peripheral blood lymphocytes (PBL) were resuspended in RPMITM 1640 medium supplemented with 10% foetal bovine serum at a concentration of 2×10^6/ml. Aliquots of […] were plated on a […] (96-well) and stimulated with 10 ug/ml of (Con-A) or 40 ug/ml of (LPSTM) at a final volume of 0.2 ml/well. ConATM and LPSTM were used to stimulate preferentially T cells and B cells, respectively. […] After an additional a 4 h incubation at 37° C., cells were collected with a cell harvester and ^3H thymidine incorporation was measured in triplicate samples by liquid scintillation counting.

NTPDase [2] = assay: NTPDase assay on intact human peripheral blood lymphocytes (PBL); type: biochemical
Protocol: Human lymphocytes were obtained from peripheral venous blood of normal and healthy medication-free volunteers. Fresh blood collected in EDTA glass tubes was layered into Histopaque™-1077 (a solution of Ficoll™ and sodium diatrizoate adjusted to a density of 1.077, Sigma, USA) and centrifuged at 400 g for exactly 30 min, at room temperature. During centrifugation, erythrocytes and granulocytes were aggregated by Ficoll™ and rapidly sedimented, whereas lymphocytes remained at the plasma interface. Plasma (the upper layer) was carefully removed to prevent disturbance of the buffy coat. The latter fraction rich in lymphocytes was recovered with a pasteur pipette and washed twice with RPMI™ 1640 medium by centrifugation, for 10 min, at 250×g. The final pellet was suspended in fresh RPMI™ 1640 medium supplemented with 2 mM L-glutamine, 10% foetal bovine serum inactivated at 56° C. for 30 min, and antibiotics: penicillin […], streptomucin 100 ug/ml and amphotericin 2.5 ug/ml. Cells were counted with the hemacytometer. […] The cell preparation named PBL (for peripheral blood lymphocyte) was immediately used for NTPDase assays and for mitogenic responses to stimulators.
Prior to the assays, human normal lymphocytes as well as leukemic cell lines, were washed three times with phosphate-free saline in 95 mM NaCl, 1 mM CaCl2, 2 mM MgCl2 and 45 mM Tris —HCl buffer (pH 7.4). Enzyme assays were carried out at 37° C. in 1 ml of the following assay medium: 95 mM NaCl, 5 mM KCl, 1 mM CaCl2, 2 mM MgCl2, 5 mM glucose, 0.05% BSA, 5 mM tetramisole and 45 mM Tris-HCl (pH 7.5). The reaction was started by adding the substrate (200 uM of ATP or ADP) and stopped with 250 ul of the Malachite green reagent. Controls were run with the enzyme added after the Malachite green reagent. Where indicated, 10 mM sodium azide (NaN3) or 1 mM, 5 mM and 10 mM of BGO 136 were added directly to the assay mixture. Inorganic phosphate was estimated according to Baykov et al.^(1) and enzyme activity was either expressed as nmoles of Pi released/min/mg of protein which corresponds to mUnits^(2) or as nmoles Pi/min/10^6 cells. Where indicated, lymphoid cells were lysed by three freeze thaw cycles in saline buffer and protein was measured with the method of Bradford using bovine serum albumin as a standard (3).

Jurkat cells = assay: Cell growth and proliferation of Jurkat cell lines; type: cell-based, human; settings: inhibitor added at day 0; cell counts on day 5
Protocol: T cell Jurkat is an acute T cell leukemia obtained from the peripheral blood of human. It was purchassed from ATCC and was grown and maintained in RPMI™. 1640 medium containing 10% FBS, 2 mM L-glutamine adjusted to contain 1.5 g/L sodium bicarbonate, 4.5 g/L glucose, 10 mM HEPES and 1.0 mM sodium pyruvate. To evaluate the effect of the different inhibitors of NTPDases on the growth of Jurkat cells, BGO 136, erythrosin, 8 Bus ATP, AMP and β-γ-Me ATP were added in the RPMI™ 1640 medium in presence of cells at day=0. Cells counts and viability of cells were determined on day=5.

mice [3] = assay: Graft vs. host reaction, spleen weight after cell transplant (Bundick model); type: in vivo; settings: for splenomegaly: spleen weighed 21 days after injection of parents' spleen cells; for suppression %: suppression of splenomegaly, no treatment = 100, positive = 0
Protocol: Mice were injected their parents' spleen cells. 21 days later, their spleen was weighed. Activation of Th2 (T helper cells) cells. The treatment groups are cyclosporin, BGO, and AMP. […] The “No treatment group” is constituted of normal mice. The “positive” group is constituted of mice having undergone spleen tissue transplantation and having been injected with the carrier only (PBS™) without inhibitor. […] The spleen of all mice was then removed and weighed. The weigh of treated mice was then compared with that of the “No treatment” mice.

mice [4] = assay: In vivo antibody production assay (humoral response to BSA, ELISA)
Protocol: Immunity mice were primed with antigen by an intraperitoneal injection of BSA as a T-dependent antigen. Briefly, BSA was resuspended in PBS (pH 7.2) and emulsified in the same volume of complete Freund's adjuvant (CFA). 30 ug BSA in […] PBS was given to each mouse. Four groups of ten mice were immunized. • Group 1: mice were injected i.p. with BSA alone with emulsified in (CFA) Group: Ag. • Group 2: mice were injected i.p. with BSA plus BGO 136 (400 mM) in […] PBS, emulsified in (CFA) or erythrosin B (0.25 g/Kg) • Group 3: mice were injected i.p. with BSA plus BGO 136 (800 mM) in […] PBS, emulsified in (CFA) or erythrosin B (0.5 g/Kg) • Group 4: mice were treated with BSA in presence of the inhibitor emulsified in (CFA). These mice received various i.p. doses of BGO 136 400 mM in 0.1 ml of normal PBS or erythrosin B 0.25 g/Kg, 2 doses/week are given as a maintenance dose. (group named DM=maintenance dose)
These initial immunizations (i.p.) were followed by two subsequent immunizations with emulsions of BSA alone or in presence of BGO136 400 mM or 800 mM, in incomplete Freund's adjuvant. Five days after each immunization, blood was collected from each animal, sera was analysed by an ELISA assay.
Flat-bottomed microtiter plate were coated with BSA (5 ug/ml) in NaHCO3/Na2CO3 50 mM (pH 9.6) at 37° C. for 2 h. Plates were washed three times with (PBS buffer, pH 7.4, 0.5 ml/L Tween-20) and then blocked with 400 ul of milk per well overnight, at 4° C. Diluted sera specimens were added (100 ul/well) and incubated for 2 h at 37° C. After thorough washing, wells were incubated with 100 ul of goat-anti-mouse IgG conjugated with peroxydase for 2 h at 37° C. followed by several washes. TMB substrate solution (100 ul/well), (42 mM TMB in DMSO, 0.1 M citric acid, Na2HPO4 0.2 M and H2O2 30%) was added. Color development was allowed to proceed for approximately 15 to 30 min, at room temperature. Reaction was terminated by adding 30 ul of 4N H2SO4. Optical density was read at 450 nm.

NTPDase [5] = settings: ATP and ADP as substrate; read-out: Ki (mixed type of inhibition); cited from earlier work

CCCCSc1nc2c(N)ncnc2n1[C@@H]1O[C@H](COP(=O)(O)O)C(O)[C@@H]1O (stereo partly drawn) [8 BUS-AMP]
lymphocytic activity including proliferation and humoral response (in words) [1]: decrease | effect on NTPDase activity (in words) (NTPDase [2]): pronounced dose-dependent inhibition | effect on NTPDase activity (in words) (NTPDase [2]; listed as 8 Bus AMP): decrease the NTPDase activity

CCCCSc1nc2c(N)ncnc2n1C1OC(COP(=O)(O)OP(=O)(O)OP(=O)(O)O)C(O)C1O (stereo not drawn) [8 BUS-ATP]
Jurkat cell proliferation (in words) (Jurkat cells): marked reduction of cell proliferation | proliferation induced by ConA (in words) ([1]; ConA-stimulated PBL): reduced cell proliferation | lymphocytic activity including proliferation and humoral response (in words) [1]: decrease | effect on NTPDase activity (in words) (NTPDase [2]): decrease the NTPDase activity

Nc1ncnc2c1ncn2[C@@H]1O[C@H](COP(=O)(O)O)[C@@H](O)[C@H]1O [AMP, adenosine 5′-monophosphate]
Jurkat cell proliferation (in words) (Jurkat cells): marked reduction of cell proliferation | splenomegaly (mice [3]): 6.7 ± 0.82 mg/g of b. weight | suppression % (mice [3]): 8%

O=S(=O)(O)c1ccc2c(O)cc(S(=O)(=O)O)cc2c1 [BGO 136, 1-hydroxynaphtalene-3,6 disulfonic acid]
tolerance: toxic or allergic reactions (mice [4]; during administration (two months)): No toxic or allergic reactions were observed | effect on levels of albumin antibodies (in words) (mice [4]; repeated injections (group DM) versus single dose): even more efficient | reduction of levels of albumin antibodies (mice [4]; single dose 800 mM i.p.): ≤ 50% | Jurkat cell proliferation (in words) (Jurkat cells): marked reduction of cell proliferation | proliferation induced by ConA (in words) ([1]; ConA-stimulated PBL): inhibited in a dose-dependent manner | proliferation induced by ConA, percent of the positive control values ([1]; ConA-stimulated PBL, 10 mM): about 10% | inhibition of LPS-induced proliferation (in words) ([1]; LPS-stimulated PBL): much less pronounced | lymphocytic activity including proliferation and humoral response (in words) [1]: decrease | proliferation of non-activated lymphocytes (3H-Thymidine incorporation in DNA) ([1]; unstimulated PBL): did not affect | efficiency in preventing spleen growth following transplantation, versus cyclosporine (mice [3]): more efficient than cyclosporine | transplanted spleens versus positive control mice (in words) (mice [3]; ANOVA): significantly smaller | splenomegaly (mice [3]): 4.3 ± 0.29 mg/g of b. weight | suppression % (mice [3]): 56% | effect on NTPDase activity (in words) (NTPDase [2]): decrease the NTPDase activity; also recorded: dose-dependent inhibition | inhibition of ATPase and ADPase activities (NTPDase [2]; 5 mM): 40% | inhibition of ATPase and ADPase activities (NTPDase [2]; 10 mM): ≥ 50% | pKi (NTPDase [5]): 3.42

O.O=C([O-])c1ccccc1-c1c2cc(I)c(=O)c(I)c-2oc2c(I)c([O-])c(I)cc12.[Na+].[Na+] [erythrosin B]
levels of antibodies to albumin (in words) (mice [4]; especially with multiple injections (group DM)): significant decrease | Jurkat cell proliferation (in words) (Jurkat cells): marked reduction of cell proliferation | proliferation induced by ConA (in words) ([1]; ConA-stimulated PBL): dose-dependent inhibition | lymphocytic activity including proliferation and humoral response (in words) [1]: decrease | effect on NTPDase activity (in words) (NTPDase [2]): dose-dependent inhibition; also recorded: decrease the NTPDase activity

Nc1ncnc2c1ncn2[C@@H]1O[C@H](COP(=O)(O)OP(=O)(O)CP(=O)(O)O)[C@@H](O)[C@H]1O [β-γ-Me ATP, beta-gamma methylene ATP]
Jurkat cell proliferation (in words) (Jurkat cells): less pronounced but significant effect | proliferation induced by ConA (in words) ([1]; ConA-stimulated PBL): reduced cell proliferation | lymphocytic activity including proliferation and humoral response (in words) [1]: decrease | effect on NTPDase activity (in words) (NTPDase [2]): inhibited in a dose-dependent manner; also recorded: decrease the NTPDase activity
